The values that follow come from patent publication US7276527B2, “5-pyridyl-1,3-azole compounds, process for producing the same and use thereof” (Takeda Pharmaceutical Company Limited, priority 1999, dated 2007).

The subject of one data set is TNF-α production in THP-1 cells. Description: Measurement of inhibiting activity of TNF-α production. Type of data set: cell-based. The conditions noted are these: Homo sapiens, LPS 5 μg/mL, 4 hours, TNF-α in supernatant by ELISA, read-out: IC50 (concentration necessary for inhibiting TNF-α production by 50%). The protocol: Measurement of Inhibiting Activity of TNF-α Production
After THP-1 cells which had been cultured on PRMI 1640 medium (manufactured by Life Technologies, Inc.) containing 1% non-activated bovine fetal serum (manufactured by Life Technologies, Inc., U.S.A.) and 10 mM HEPES (pH 7.5) seeded on a 96-well plate to 1×10^5 cells/well, 1 μL test compound dissolved in DMSO was added to there. After incubation at 37° C. for 1 hour in a CO2 incubator, LPS (Wako Pure Chemicals) was added to the final concentration 5 μg/mL. After cultured at 37° C. for 4 hours in a CO2 incubator, the supernatant was obtained by centrifugation. The concentration of TNF-α in the supernatant was measured with ELISA (R&D System, Quantikine Kit). The concentration (IC50 value) necessary for inhibiting TNF-α production by 50% was calculated by PRIMS 2.01 (Graphpad Software).
Take `COc1ccc(-c2nc(NC(=O)c3cccnc3)sc2-c2ccnc(NC(=O)c3cccnc3)c2)cc1` [Example 3, N-[4-(4-methoxypheny)-5-[2-[(3-pyridylcarbonylamino)]-4-pyridyl]-1,3-thiazol-2-yl]nicotinamide]: the IC50 was 26 nM.

On to `Cc1cc(C)cc(-c2nc(N)sc2-c2ccnc(NCc3ccccc3)c2)c1` [Example 6, N-[4-[2-amino-4-(3,5-dimethylphenyl)-1,3-thiazol-5-yl]-2-pyridyl]benzylamine], for which the IC50 worked out at 140 nM.

Turning to `COc1ccc(-c2nc(N)sc2-c2ccnc(NC(=O)c3ccccc3)c2)cc1` [Example 4, N-[4-[2-amino-4-(4-methoxyphenyl)-1,3-thiazol-5-yl]-2-pyridyl]benzamide], the IC50 was 14 nM.

Test system in another data set: not given
Test: not given
Settings: not given
Turning to `CSc1ccc(-c2nc(-c3cccc(C)c3)c(-c3ccnc(NC(=O)Cc4ccccc4)c3)s2)cc1` [Example Compound 15-6, N-[4-[4-(3-methylphenyl)-2-(4-methylthiophenyl)-1,3-thiazol-5-yl]-2-pyridyl]phenylacetamide], the melting point is 205 to 206 °C.

In the case of `Cc1cccc(-c2nc(-c3ccc(S(C)(=O)=O)cc3)sc2-c2ccnc(NCc3ccc(F)cc3)c2)c1` [Example Compound 25-2, N-(4-fluorobenzyl)-N-[4-[4-(3-methylphenyl)-2-(4-methylsulfonylphenyl)-1,3-thiazol-5-yl]-2-pyridyl]amine], the melting point was in the range of 155 to 158 °C.

Molecule `CSc1ccc(-c2nc(-c3cccc(C)c3)c(-c3ccnc(NCc4ccc5ccccc5c4)c3)s2)cc1` [Example Compound 19-20, N-[4-[4-(3-methylphenyl)-2-(4-methylthiophenyl)-1,3-thiazol-5-yl]-2-pyridyl]-N-(2-naphthylmethyl)amine] had a melting point of 144 to 145 °C.

For `Cc1cccc(-c2nc(-c3ccc(S(C)(=O)=O)cc3)sc2-c2ccnc(NC(=O)c3cccs3)c2)c1` [Example Compound 21-3, N-[4-[4-(3-methylphenyl)-2-(4-methylsulfonylphenyl)-1,3-thiazol-5-yl]-2-pyridyl]-2-thiophenecarboxamide], the melting point is 199 to 201 °C.

Take `COc1cccc(-c2nc(N)sc2-c2ccnc(NCc3ccccc3)c2)c1` [Example Compound 24, N-[4-[2-amino-4-(3-methoxyphenyl)-1,3-thiazol-5-yl]-2-pyridyl]-N-benzylamine]: the melting point is 217 to 218 °C.

On to `CC(=O)Nc1nc(-c2cc(C)cc(C)c2)c(-c2ccnc(NCc3ccccc3)c2)s1` [Example Compound 10, N-[5-(2-benzylamino-4-pyridyl)-4-(3,5-dimethylphenyl)-1,3-thiazol-2-yl]acetamide], for which the melting point lay within 217 to 219 °C.

For `Cc1cccc(-c2nc(-c3ccccc3Cl)sc2-c2ccnc(NC(=O)Cc3ccccc3)c2)c1` [Example Compound 15-5, N-(4-[2-(2-chlorophenyl)-4-(3-methylphenyl)-1,3-thiazol-5-yl]-2-pyridyl]phenylacetamide], the melting point was 141 to 142 °C.

Consider `CNc1nc(-c2ccc(OC)cc2)c(-c2ccnc(NC(=O)c3ccccc3)c2)s1` [Example Compound 11, N-[4-[4-(4-methoxyphenyl)-2-methylamino-1,3-thiazol-5-yl]-2-pyridyl]benzamide], for which the melting point lay in the range of 237 to 241 °C.

With `COc1ccc(CNc2cc(-c3sc(N)nc3-c3cccc(C)c3)ccn2)cc1` [Example Compound 23-1, N-[4-[2-amino-4-(3-methylphenyl)-1,3-thiazol-5-yl]-2-pyridyl]-N-(4-methoxybenzyl)amine], the melting point was 183 to 184 °C.

The molecule `CCCCc1nc(-c2cccc(C)c2)c(-c2ccnc(NC(=O)Cc3ccccc3)c2)s1` [Example Compound 15-4, N-[4-[2-butyl-4-(3-methylphenyl)-1,3-thiazol-5-yl]-2-pyridyl]phenylacetamide] gave a melting point of 92 to 93 °C.

`CSc1ccc(-c2nc(-c3cccc(C)c3)c(-c3ccnc(NC(=O)c4ccccc4)c3)s2)cc1` [Example Compound 16-15, N-[4-[4-(3-methylphenyl)-2-(4-methylthiophenyl)-1,3-thiazol-5-yl]-2-pyridyl]benzamide] gave a melting point of 180 to 182 °C.

The molecule `CSc1ccc(-c2nc(-c3cccc(C)c3)c(-c3ccnc(NCCc4ccccc4)c3)s2)cc1` [Example Compound 19-18, N-[4-[4-(3-methylphenyl)-2-(4-methylthiophenyl)-1,3-thiazol-5-yl]-2-pyridyl]-N-(2-phenylethyl)amine] yielded a melting point of 137 to 139 °C.

`CCCc1nc(-c2cccc(C)c2)c(-c2ccnc(NC(=O)CCc3ccccc3)c2)s1` [Example Compound 16-8, N-[4-[4-(3-methylphenyl)-2-propyl-1,3-thiazol-5-yl]-2-pyridyl]-3-phenylpropionamide] showed a melting point of 103 to 104 °C.

Turning to `CCc1nc(-c2cccc(C)c2)c(-c2ccnc(NC(=O)CCCCc3ccccc3)c2)s1` [Example Compound 16-6, N-[4-[2-ethyl-4-(3-methylphenyl)-1,3-thiazol-5-yl]-2-pyridyl]-5-phenylvaleramide], the melting point was 86 to 87 °C.

As to `Cc1cccc(-c2nc(N)sc2-c2ccnc(NC(=O)c3ccccc3)c2)c1` [Example Compound 12, N-[4-[2-amino-4-(3-methylphenyl)-1,3-thiazol-5-yl]-2-pyridyl]benzamide], the melting point lay within 216 to 217 °C.

Turning to `COc1cccc(CNc2cc(-c3sc(N)nc3-c3cccc(C)c3)ccn2)c1` [Example Compound 23-2, N-[4-[2-amino-4-(3-methylphenyl)-1,3-thiazol-5-yl]-2-pyridyl]-N-(3-methoxybenzyl)amine], the melting point was 152 to 154 °C.

With `Cc1cccc(-c2nc(-c3ccc(S(C)(=O)=O)cc3)sc2-c2ccnc(N(C)CCc3ccccc3)c2)c1` [Example Compound 25-4, N-methyl-N-[4-[4-(3-methylphenyl)-2-(4-methylsulfonylphenyl)-1,3-thiazol-5-yl]-2-pyridyl]-N-(2-phenylethyl)amine], the melting point fell in the range of 116 to 117 °C.

With `CCc1nc(-c2cccc(C)c2)c(-c2ccnc(NC(=O)CCCc3ccccc3)c2)s1` [Example Compound 16-5, N-[4-[2-ethyl-4-(3-methylphenyl)-1,3-thiazol-5-yl]-2-pyridyl]-4-phenylbutyramide], the melting point was 92 to 93 °C.
